Assay results reported in patent US8778966B2, “Quinolinone derivatives as PARP and tank inhibitors” (Janssen Pharmaceutica, NV, priority 2007, dated 2014).

Assays:
PC3 cells = test: EB1 Comet (microtubule disruption) assay; assay type: cell-based, human; details: 1 hour treatment; for minimal effective concentration: Homo sapiens, PC-3, 1 h, read-out: EB1 pLAC (converted)
Outline: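 PC3 human prostate cancer cells exposed to compound for 1 h at 37 °C (0.6% DMSO final), methanol-fixed, immunostained for Eb1 and imaged at 20×. Value is the lowest active concentration (LAC): the concentration at which Eb1 foci are absent in at least 50% of treated cells.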

PC-3 cells = test: Antiproliferative activity, Alamar Blue assay, PC-3 cells; assay type: cell-based, human; details: for IC50: Homo sapiens, PC-3, PC3 cells, read-out: PC3 antiproliferative activity pIC50 (converted); for PC3 antiproliferative activity pIC50: PC3 cells
Outline: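 PC-3 cells seeded at 4.5×10^3 cells/ml, left to adhere 24 hr, then exposed to compound for 4 days. Resazurin (Alamar Blue) added for a further 24 hrs at 37° C; fluorescence read at 540/590 nm. Viability as % of untreated control, mean of 3 wells; IC50 by probit analysis, reported as pIC50.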

Structure (SMILES)	minimal effective concentration (PC3 cells) [µM]	IC50 (PC-3 cells) [nM]	EB1 pLAC (PC3 cells)	PC3 antiproliferative activity pIC50 (PC-3 cells)
Cc1cc2ccc(C(C)(C#N)C3CCc4c(C#N)cccc43)cc2[nH]c1=O (racemic) [Compound 393]	10	10000		
CCc1cc2ccc([C@@](C)(C#N)CN(C)Cc3ccc(C#N)cc3)cc2[nH]c1=O (single isomer, unassigned) [Compound 253]	0.1	158		
CCc1cc2ccc(C(C)(C#N)C3CCc4ccc(Br)cc43)cc2[nH]c1=O (single isomer, unassigned) [Compound 380]			6	5.5
CCc1cc2ccc(C(C)(C#N)C3CCc4ccc(Br)cc43)cc2[nH]c1=O (single isomer, unassigned) [Compound 381]			7	7.0
Cc1cc2ccc([C@](C)(C#N)C3CCc4cccnc43)cc2[nH]c1=O (single isomer, unassigned) [Compound 388]	> 10	10000		
CCc1cc2ccc([C@](C)(C#N)[C@H]3CCOc4ccccc43)cc2[nH]c1=O (single isomer, unassigned) [Compound 394]	3.16	10000		
CCc1cc2ccc([C@@](C)(C#N)[C@H]3CCOc4ccccc43)cc2[nH]c1=O (single isomer, unassigned) [Compound 395]	0.316	794		
CCc1cc2ccc([C@](C)(C#N)C[C@H]3CCc4ccccc4O3)cc2[nH]c1=O (single isomer, unassigned) [Compound 396]		7940		
CCc1cc2ccc(C(C)(C#N)Cc3cccc(-c4cnn(C)c4)c3)cc2[nH]c1=O (stereo not shown) [Compound 17]	3.16	10000		
CCc1cc2ccc(C(C)(C#N)Cc3cccc(-c4ccccc4)c3)cc2[nH]c1=O (stereo not shown) [Compound 18]	1	1260		
CCc1cc2ccc(C(C)(C#N)Cc3cccc(I)c3)cc2[nH]c1=O (stereo not shown) [Compound 19]	0.316	158		
CCc1cc2ccc(C(C)(C#N)Cc3cccc(N(C)C)c3)cc2[nH]c1=O (stereo not shown) [Compound 20]	0.1	200		
CCc1cc2ccc(C(C)(C#N)Cc3cccc(N4CCOCC4)c3)cc2[nH]c1=O (stereo not shown) [Compound 21]	1	2000		
CCc1cc2ccc(C(C)(C#N)Cc3cccc(O)c3)cc2[nH]c1=O (stereo not shown) [Compound 22]		7940		
CCc1cc2ccc(C(C)(C#N)Cc3cccc(OCc4ccccc4)c3)cc2[nH]c1=O (stereo not shown) [Compound 23]	10	5010		
CCc1cc2ccc(C(C)(C#N)Cc3cccc(OCCOC)c3)cc2[nH]c1=O (stereo not shown) [Compound 24]	1	1000		
CCC(=O)c1cccc(CC(C)(C#N)c2ccc3cc(C)c(=O)[nH]c3c2)c1 (stereo not shown) [Compound 173]	0.316	398		
CCc1cc2ccc(C(C)(C#N)Cc3cc(C)cc(C#N)c3)cc2[nH]c1=O (stereo not shown) [Compound 174]	0.1	200		
CCc1cc2ccc(C(C)(C#N)Cc3cccc(S(F)(F)(F)(F)F)c3)cc2[nH]c1=O (stereo not shown) [Compound 177]	1	3160		
CCc1cc2ccc(C(C)(C#N)Cc3cccc(C4(N)CC4)c3)cc2[nH]c1=O (stereo not shown) [Compound 180]	3.16	3160		
CCc1cc2ccc(C(C)(C#N)CCCN(C)C(=O)c3ccc(F)cc3)cc2[nH]c1=O (stereo not shown) [Compound 188]	1	2510		

Structure (SMILES)	minimal effective concentration (PC3 cells) [µM]	IC50 (PC-3 cells) [nM]	EB1 pLAC (PC3 cells)	PC3 antiproliferative activity pIC50 (PC-3 cells)
CCc1cc2ccc([C@](C)(C#N)CN(C)Cc3ccc(C#N)cc3)cc2[nH]c1=O [Compound 190]	10	10000		
Cc1cc2ccc(C(C)(C#N)Cc3cccc(Oc4ncccn4)c3)cc2[nH]c1=O (stereo not shown) [Compound 191]	0.316	501		
Cc1cc2ccc(C(C)(C#N)Cc3cccc(Oc4ccccc4)n3)cc2[nH]c1=O (stereo not shown) [Compound 193]	0.1	631		
CCc1cc2cc(C)c(C(C)(C#N)Cc3cccc(C#N)n3)cc2[nH]c1=O (stereo not shown) [Compound 208]		10000		
CCc1cc2ccc(C(C)(C#N)Cc3ccc(Cl)nc3Cl)cc2[nH]c1=O (stereo not shown) [Compound 212]		5010		
COc1cc2ccc(C(C)(C#N)Cc3cccc(C#N)n3)cc2[nH]c1=O (stereo not shown) [Compound 218]	0.316	1260		
CCc1cnc(OCCC(C)(C#N)c2ccc3cc(CC)c(=O)[nH]c3c2)nc1 (stereo not shown) [Compound 222]	10	3980		
CCc1cc2ccc(C(C)(C#N)CCOc3nccc(OC)n3)cc2[nH]c1=O (stereo not shown) [Compound 223]	1	6310		
CCc1cc2ccc(C(C)(C#N)Cc3ccc(OC)nc3Cl)cc2[nH]c1=O (stereo not shown) [Compound 224]	0.316	3160		
CCc1cc2ccc(C(C)(C#N)Cc3ccc(Cl)nc3OC)cc2[nH]c1=O (stereo not shown) [Compound 225]	1	794		
CCc1cc2ccc(C(C)(C#N)Cc3cccc(N4CCCC4)n3)cc2[nH]c1=O (stereo not shown) [Compound 226]	3.16	1580		
Cc1cc2ccc(C(C)(C#N)Cc3cccc(C#N)n3)cc2[nH]c1=O (stereo not shown) [Compound 227]	1	631		
CCc1cc2ccc(C(C)(C#N)Cc3cc(OC)cc(OC)n3)cc2[nH]c1=O (stereo not shown) [Compound 232]	0.1	251		
CCc1cc2ccc(C(C)(C#N)Cc3cc(C#N)cc4c3OCC4)cc2[nH]c1=O (stereo not shown) [Compound 236]	0.316	501		
CCc1cc2ccc(C(C)(C#N)Cc3cc4ccccc4nn3)cc2[nH]c1=O (stereo not shown) [Compound 238]	1	3980		
Cc1cc2ccc([C@@](C)(C#N)[C@@H]3CCc4cc(Br)ccc43)cc2[nH]c1=O [Compound 240]	> 10	10000		
Cc1cc2ccc([C@@](C)(C#N)[C@H]3CCc4cc(Br)ccc43)cc2[nH]c1=O [Compound 241]	0.316	794		
Cc1cc2ccc([C@](C)(C#N)[C@@H]3CCc4cc(Br)ccc43)cc2[nH]c1=O [Compound 242]	0.1	79.4		
Cc1cc2ccc(C(C)(C#N)C3CCc4cc(Br)ccc43)cc2[nH]c1=O (stereo not shown) [Compound 244]			7	6.6
Cc1cc2ccc(C(C)(C#N)C3CCc4c(Br)cccc43)cc2[nH]c1=O (stereo not shown) [Compound 248]	0.316	794		
Cc1cc2ccc(C(C)(C#N)C3CCc4ccc(Br)cc43)cc2[nH]c1=O (stereo not shown) [Compound 249]	0.178	251		

Structure (SMILES)	minimal effective concentration (PC3 cells) [µM]	IC50 (PC-3 cells) [nM]	EB1 pLAC (PC3 cells)	PC3 antiproliferative activity pIC50 (PC-3 cells)
Cc1cc2ccc(C(C)(C#N)C3CCc4ccc(C#N)cc43)cc2[nH]c1=O (stereo not shown) [Compound 250]	0.316	316		
C=C(C)c1cccc(CC(C)(C#N)c2ccc3cc(CC)c(=O)[nH]c3c2)c1 (stereo not shown) [Compound 254]	1	794		
CCc1cc2ccc(C(C#N)(CC)Cc3cccc(C#N)c3)cc2[nH]c1=O (stereo not shown) [Compound 265]	1	1000		
CCc1cc2ccc(C(C)(C#N)Cc3cc(F)cc(C#N)c3)cc2[nH]c1=O (stereo not shown) [Compound 266]	0.316	398		
CCc1cc2ccc(C(C#N)(CC)Cc3cccc(F)c3)cc2[nH]c1=O (stereo not shown) [Compound 270]	3.16	3160		
Cc1cc2ccc(C(C)(C#N)CCCCOc3ccccc3)cc2[nH]c1=O (stereo not shown) [Compound 272]	1	5010		
Cc1cc2ccc(C(C)(C#N)Cc3cc(F)cc(F)c3)cc2[nH]c1=O (stereo not shown) [Compound 282]	3.16	1000		
CCc1cc2ccc(C(C)(C#N)Cc3cc(C)cc(Br)c3)cc2[nH]c1=O (stereo not shown) [Compound 284]	0.316	200		
CCc1cc2ccc(C(C#N)(CC)Cc3cccc(OC)c3)cc2[nH]c1=O (stereo not shown) [Compound 287]	0.316	1260		
CCc1cc2ccc(C(C)(C#N)CN(C)CCc3cn(C)c4ccccc34)cc2[nH]c1=O (stereo not shown) [Compound 303]	10	3160		
CCc1cc2ccc(C(C)(C#N)Cc3cc(C)nc(C#N)c3)cc2[nH]c1=O (stereo not shown) [Compound 328]		1260		
CCc1cc2ccc(C(C)(C#N)Cc3ccnc(F)c3)cc2[nH]c1=O (stereo not shown) [Compound 330]		10000		
CCc1cc2ccc(C(C)(C#N)CN3CCN(c4ncc(Br)cn4)CC3)cc2[nH]c1=O (stereo not shown) [Compound 374]		794		
Cc1cc2ccc([C@@](C)(C#N)[C@@H]3CCCc4ccccc43)cc2[nH]c1=O [Compound 382]		10000		
CCc1cc2ccc(C(C#N)(CC)Cc3cccc(CN)c3)cc2[nH]c1=O (stereo not shown) [Compound 390]		2510		
CCc1cc2ccc(C(C#N)(CC)C3CCc4ccc(OC)cc43)cc2[nH]c1=O (stereo not shown) [Compound 403]		316		
Cc1cc2ccc([C@@](C)(C#N)[C@H]3CCc4ccc(Br)cc43)cc2[nH]c1=O [Compound 405]		79.4		
Cc1cc2ccc([C@](C)(C#N)[C@@H]3CCc4ccc(Br)cc43)cc2[nH]c1=O [Compound 406]		10000		
Cc1cc2ccc([C@](C)(C#N)[C@H]3CCc4ccc(Br)cc43)cc2[nH]c1=O [Compound 407]		1260		
